Here are results for one substance from publication PMC8810938 (Clinical & Translational Immunology, 2022).

In assay [1] the test system is TGF‐β1‐stimulated human fibroblasts. Description: Induction assay: fibrotic marker mRNA. It is filed as cell-based. The settings on record: primary human fibroblasts, TGF‐β1 5 ng mL^−1, 48 h, only at the highest test concentration 100 nM; qPCR; n = 4. (In qPCR the cycle at which signal appears reflects the starting amount.)
The target in assay [2] is T1, CXCR3A‐transfected CHO cells (human CXCR3A) (Homo sapiens, UniProt P49682).
T1 sequence (P49682 1-368): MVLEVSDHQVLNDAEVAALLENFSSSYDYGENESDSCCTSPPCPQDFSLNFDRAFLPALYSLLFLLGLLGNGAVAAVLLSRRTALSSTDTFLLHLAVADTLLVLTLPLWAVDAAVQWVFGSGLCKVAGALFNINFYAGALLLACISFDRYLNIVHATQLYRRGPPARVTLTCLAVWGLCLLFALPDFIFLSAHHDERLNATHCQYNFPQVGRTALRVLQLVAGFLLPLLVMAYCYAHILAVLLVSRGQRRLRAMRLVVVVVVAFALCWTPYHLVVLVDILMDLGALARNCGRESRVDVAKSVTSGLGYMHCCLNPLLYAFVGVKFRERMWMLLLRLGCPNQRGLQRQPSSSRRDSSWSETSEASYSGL
The settings on record: CXCR3‐transfected CHO cells; n = 4; cited from earlier work.

Turning to “CXCL9(1–103): authentic full‐length human CXCL9 chemokine of 103 amino acids (Peprotech)”, the “collagen III mRNA expression” value in assay [1] was “significant reduction”. In assay [2], the calcium response is reported as 598.1 ± 22.9 nM.
